# Assays:
# rat plasma = assay: Thrombelastography in rat plasma with or without tPA; format: biochemical
# Procedure: Two sets of two Sprague Dawley outbred male rats were anesthetized with ketamine and xylazine and had blood drawn via cardiac puncture, pooled in two batches, and anticoagulated 1:9 with 3.2% sodium citrate. Two male New Zealand White rabbits were sedated with acepromazine and had blood collected via central ear artery and similarly anticoagulated. Blood was centrifuged at 3000×g for 15 min, and the plasma stored in two batches until analyzed. The final volume for thrombelastographic plasma sample mixtures was 359.6 μL. Sample composition consisted of 316 μL of plasma; 10 μL of tissue factor reagent (0.1% final concentration in dH2O; Instrumentation Laboratory, Lexington, Mass.); 10 μL of dH2O or tissue-type plasminogen activator (tPA, 580 U/μg, Genentech, Inc., San Francisco, Calif.) for a final activity of 2000 U/mL for rat plasma or 300 IU/mL for rabbit plasma; 3.6 μL of dimethyl sulfoxide (DMSO) or DMSO with CORM-2 (100 μM final concentration; Sigma-Aldrich, St. Louis, Mo.); and 20 μL of 200 mM CaCl2. The tPA activity for each species was determined with pilot data to obtain reproducible lysis within 15 min. There was no appreciable lysis in rat plasma at 100, 300, or 1000 U/mL tPA. Plasma sample mixtures were placed in a disposable cup in a computer-controlled THROMBELASTOGRAPH® hemostasis system (Model 5000, Haemoscope Corp., Niles, Ill.), with addition of CaCl2 as the last step to initiate clotting. In experiments without tPA, data were collected until clot strength (maximum amplitude) was stable. In experiments with tPA, data derived from the second rabbit plasma samples were collected for 60 min whereas data obtained with the second rat plasma samples were collected for 15 min. Thrombelastographic variables were determined at 39° C. as previously described in Examples 1, 2, and 4. Data were statistically compared with unpaired Student's t-test.
# pooled normal plasma = assay: Dilution-response thrombelastography in plasma diluted with NS or VOL (no tPA); format: biochemical, human
# Text: Plasma and volume expanders. Pooled normal plasma (George King Bio-Medical, Overland Park, Kans.) anticoagulated with sodium citrate was utilized for experimentation. […] The volume expanders tested were 0.9% NaCl (Abbott Laboratories, North Chicago, Ill.; also designated as NS) and 6% hydroxylethyl starch (HES) in 0.9% NaCl (VOLUVEN®, average molecular weight 130 kDa, 0.4 degree of substitution, C2:C6 ratio of substitution 11.2; Fresenius Kabi, Bad Homburg, Germany; also referred to as VOL).
# Plasma sample composition of dilution-response experiments. The final volume for all subsequently described plasma sample mixtures was 359.6 μL. Sample composition consisted of 326 μL of plasma/volume expander, 10 μL of tissue factor reagent (0.1% final concentration in dH2O; Instrumentation Laboratory, Lexington, Mass.), 3.6 μL of dimethyl sulfoxide (DMSO) or DMSO with CORM-2 (100 μM final concentration; Sigma-Aldrich, St. Louis, Mo.), and 20 μL of 200 mM CaCl2. Tissue factor stock was kept on ice prior to use and was remade every two hours. […] DMSO was added to dry CORM-2 just prior to placement into the plasma mixture. Plasma was diluted 0%, 20%, 30%, 40% or 50% with NS or VOL (n=4 per condition).
# Clot Lifespan Model (CLSM) Analyses. Plasma sample mixtures were placed in a disposable cup in a computer-controlled THROMBELASTOGRAPH® hemostasis system (Model 5000, Haemoscope Corp., Niles, Ill.), with addition of CaCl2 as the last step to initiate clotting. In the first series of experiments, no tPA was added, so data were collected until clot strength (maximum amplitude) was stable. In the second series of experiments which in tPA was added, data were collected until clot lysis time occurred. […] Additional elastic modulus-based parameters were determined and the nomenclature used to describe these phenomena is as follows: Time to maximum rate of thrombus generation (TMRTG): This is the time interval (sec) observed prior to maximum speed of clot growth. Maximum rate of thrombus generation (MRTG): This is the maximum velocity of clot growth observed (dynes/cm^2/sec). Total Thrombus Generation (TTG): This is the total area under the velocity curve during clot growth (dynes/cm^2), representing the amount of clot strength generated during clot growth. Time to maximum rate of lysis (TMRL): This is the time interval (sec) measured from the time of maximum strength to the time when the velocity of clot disintegration is maximal. Maximum Rate of Lysis (MRL): This is the maximum velocity of clot disintegration observed (−dynes/cm^2/sec). Area of Clot Lysis (ACL): This is the total area under the velocity curve during clot disintegration (−dynes/cm^2), representing the amount of clot strength lost during clot disintegration. As this model involves complete fibrinolysis, TTG is equivalent to ACL, so ACL was not presented as it provides no additional information.
# Statistical Analyses. Data obtained from pooled normal plasma not exposed to tPA were graphically represented with commercially available software (SigmaPlot 11.0, Systat Software, Inc., San Jose, Calif.), and kinetic modeling of thrombelastographic data performed with the same software. Analyses of the effects of hemodilution and CORM-2 on CLSM variables obtained from pooled normal plasma were conducted using Kruskal-Wallis one way analysis of variance with Student-Newman-Keuls post-hoc test. […] These analyses were conducted with the same commercially available software (SigmaPlot 11.0). A P value of <0.05 was considered significant.
# [1] = 2000 U/ml tPA, 100 μM CORM-2, mean ± SD, n=4
# [2] = 2000 U/ml tPA, 100 μM vs 0 μM CORM-2
# [3] = no tPA, 100 μM CORM-2, mean ± SD, n=4
# [4] = 20% dilution with VOL + 100 μM CORM-2, no tPA
# [5] = 30% dilution with VOL + 100 μM CORM-2, no tPA
# [6] = 40% dilution with VOL + 100 μM CORM-2, no tPA
# [7] = 50% dilution with VOL + 100 μM CORM-2, no tPA
# [8] = undiluted samples, no tPA, 100 μM CORM-2
compound,measurement,setting,value
"[C-]#[O+].[C-]#[O+].[C-]#[O+].[C-]#[O+].[C-]#[O+].[C-]#[O+].[Cl][Ru][Cl].[Cl][Ru][Cl] [CORM-2, tricarbonyldichlororuthenium (II) dimer]",ACL (area under the curve of lysis),rat plasma; [1],0 ± 0 −dynes/cm^2
same,MRL (maximum rate of lysis),rat plasma; [1],0.0 ± 0.0 −dynes/cm^2/sec
same,MRTG (maximum rate of thrombus generation),rat plasma; [1],14.7 ± 0.6 dynes/cm^2/sec
same,TMRTG (time to maximum rate of thrombus generation),rat plasma; [1],1.5 ± 0.1 min
same,TTG (total thrombus generation),rat plasma; [1],230 ± 6 dynes/cm^2
same,TMRL (time to maximum rate of lysis),"rat plasma; 2000 U/ml tPA, 100 μM CORM-2, n=4",No Lysis
same,Percent Change of ACL,rat plasma; [2],−100%
same,Percent Change of MRL,rat plasma; [2],−100%
same,Percent Change of MRTG,rat plasma; [2],29%
same,Percent Change of TMRTG,rat plasma; [2],0%
same,Percent Change of TTG,rat plasma; [2],23%
same,MRTG (maximum rate of thrombus generation),rat plasma; [3],14.7 ± 0.6 dynes/cm^2/sec
same,TMRTG (time to maximum rate of thrombus generation),rat plasma; [3],1.5 ± 0.1 min
same,TTG (total thrombus generation),rat plasma; [3],230 ± 6 dynes/cm^2
same,Percent Change of MRTG,"rat plasma; no tPA, 100 μM vs 0 μM CORM-2",29%
same,Percent Change of TMRTG,"rat plasma; no tPA, 100 μM vs 0 μM CORM-2",0%
same,Percent Change of TTG,"rat plasma; no tPA, 100 μM vs 0 μM CORM-2",23%
same,"MRTG, % of undiluted samples",pooled normal plasma; [4],93%
same,"TTG, % of undiluted samples",pooled normal plasma; [4],76%
same,"MRTG, % of undiluted samples",pooled normal plasma; [5],67%
same,"TTG, % of undiluted samples",pooled normal plasma; [5],50%
same,"MRTG, % of undiluted samples",pooled normal plasma; [6],60%
same,"TTG, % of undiluted samples",pooled normal plasma; [6],45%
same,"MRTG, % of undiluted samples",pooled normal plasma; [7],22%
same,"TTG, % of undiluted samples",pooled normal plasma; [7],17%
same,increase in MRTG with CORM-2 exposure,"pooled normal plasma; samples diluted 50% with NS, no tPA, 100 μM CORM-2",12%
same,MRTG greater than matched diluted samples not exposed to CORM-2,"pooled normal plasma; samples diluted with NS (except 50%), no tPA, 100 μM CORM-2",40-50%
same,increase in MRTG,pooled normal plasma; [8],75%
same,increase in TTG,pooled normal plasma; [8],59%

# Reference: patent US8697747B2, “Enhancing coagulation or reducing fibrinolysis” (THe UAB Research Foundation, priority 2009, dated 2014)
